Here are results for 1 molecule from patent US20050118226A1, “Methods for treating ACAT-related diseases” (priority 2003, published 2005).

“Also recorded” adds a separate entry of the source.

Data set [1] deals with ACAT. Description: Cholesterol determinations in non-transgenic mice given 21 day-release CP-113,818 pellets. The data set is classed as in vivo. The note with it: 21 days. An excerpt:
hAPP transgenic mice overexpress human APP751 with the London (V717I) and Swedish (K670M/N671L) mutations under the regulatory control of the neuron specific murine (m)Thy-1 promoter (mThy-1-hAPP751; heterozygous with respect to the transgene, on a C57BL/6 F3 background) (Rockenstein et al., 2001). The hAPP colony was sustained by crossing transgenic APP751 with C57BL/6 (Harlan Winkelman, Germany). Corresponding littermates were used for control studies. All mice were housed according to standard animal care protocols, fed ad libitum with standard chow diet, and maintained in a pathogen-free environment in single ventilated cages at JSW Research. The transgenic status of each animal was confirmed by real time PCR of tail snips using specific primers and the appropriate hybridization probe. A modified Irvine test was regularly performed prior to the experiment to assess the neurological status of the animals; those showing disturbances were excluded from the experiments. Mice were then randomly assigned to different treatment groups and individually coded. Investigators performing behavioral testing, biochemical analyzes and histomorphological evaluations of the brains were blinded in terms of group allocation of the mice. CP-113,818, a potent inhibitor of both ACAT1 and ACAT2 (Chang et al., 2000), was graciously provided by Dr. James Harwood, Pfizer (Groton, Conn.). The drug was compounded in release pellets for continuous dosing by Innovative Research of America (Sarasota, Fla.). Only the test compound, but not carrier biopolymers and substances in the pellets, are released into the bloodstream. Pellets were generated to provide either 21 day or 60 days of continuous drug delivery. For implantation of pellets, animals were anesthized with isofluorance. Then, sterile pellets containing either CP-113,818 or placebo were implanted subcutaneously along the anterolateral aspect of the left shoulder with a special precision trocar in accordance with the suppliers instructions.
Tissues were homogenized in the presence of trypsin (10 mg/ml) in a Dounce homogenizer on ice. Protein concentration of the homogenate was determined using the BCA protein assay kit (Pierce). The tissue homogenate was extracted in chloroform:methanol (2:1, v/v) overnight. Before drying the chloroform phase, polyoxyethylene-9-lauryl ether (Sigma; 5 μl/ml of extract) was added. Dried lipid pellets were dissolved in water and total amount of cholesterol was determined with an enzymatic assay (Sigma; cat. no. 402-20). As control, free cholesterol was determined with a different enzymatic assay (R-Biopharm GmbH, Darmstadt, Germany; cat. no. E0139050). The amount of cholesteryl-esters was calculated by subtracting free from total cholesterol. Finally, the values were normalized to protein concentration of the tissue homogenate and expressed in mg of cholesterol per g of protein.
CP-113,818 is a fatty-acid anilide derivative designed to mimic the acyl-CoA substrate of ACAT and a potent ACAT inhibitor in vitro, cell culture, and animals (Chang et al., 2000; Marzetta et al., 1994; Puglielli et al., 2001). In order to determine the in vivo efficacy of CP-113,818 in reducing mouse brain cholesteryl-ester levels, we initially treated non-transgenic animals with the ACAT inhibitor. Most ACAT inhibitors are poorly absorbed when administered orally, and are quickly turned over in the blood or tissues (Marzetta et al., 1994). […]

For data set [2] the following is noted: rat, in vivo; cited from earlier work.
Data set [3] deals with synaptophysin. Description: Synaptophysin immunoreactivity in hippocampal CA1 region. The data set is classed as in vivo, mouse. The note with it: CA1 layer of hippocampus, hAPP mice, vs placebo. As for the experimental part: For histomorphological analyses, 8 to 15 histological sections (10 μm) were prepared from one hemisphere of 12 animals (6 placebo, 6 CP-113,818; 3 male, 3 female per group). Number and surface area of amyloid plaques were evaluated in both cortex and hippocampus. 6E10 (Signet; 1:5000; monoclonal) as primary antibody, and Cy™3 fluorescent goat anti-mouse IgG as secondary antibody (Jackson Immuno Research) were used for Aβ staining. Sections of the same brains were also used for synaptophysin staining (Chemicon; 1:5000; monoclonal). Synaptophysin immunoreactive spots were counted by light microscopy in the hippocampal CA1 region. The estimation of immunohistochemical reactions was done by computer-assisted quantification (IMAGE PRO PLUS, Media Cybernetics).

Data set [4] concerns ACAT. Description: Cholesterol determinations in hAPP mice treated two months with CP-113,818 pellets. The data set is classed as in vivo, mouse. The note with it: 7.2 mg/kg/day, 57 days. The text has this: hAPP transgenic mice overexpress human APP751 with the London (V717I) and Swedish (K670M/N671L) mutations under the regulatory control of the neuron specific murine (m)Thy-1 promoter (mThy-1-hAPP751; heterozygous with respect to the transgene, on a C57BL/6 F3 background) (Rockenstein et al., 2001). The hAPP colony was sustained by crossing transgenic APP751 with C57BL/6 (Harlan Winkelman, Germany). Corresponding littermates were used for control studies. All mice were housed according to standard animal care protocols, fed ad libitum with standard chow diet, and maintained in a pathogen-free environment in single ventilated cages at JSW Research. The transgenic status of each animal was confirmed by real time PCR of tail snips using specific primers and the appropriate hybridization probe. A modified Irvine test was regularly performed prior to the experiment to assess the neurological status of the animals; those showing disturbances were excluded from the experiments. Mice were then randomly assigned to different treatment groups and individually coded. Investigators performing behavioral testing, biochemical analyzes and histomorphological evaluations of the brains were blinded in terms of group allocation of the mice. […]
Animals were sacrificed the day after the last MWM training, on day 57 of treatment. […] Hematoxylin and eosin stained 6-8 um sections were analyzed for evidence of CP-113,818 toxicity.
Tissues were homogenized in the presence of trypsin (10 mg/ml) in a Dounce homogenizer on ice. Protein concentration of the homogenate was determined using the BCA protein assay kit (Pierce). […] Dried lipid pellets were dissolved in water and total amount of cholesterol was determined with an enzymatic assay (Sigma; cat. no. 402-20). As control, free cholesterol was determined with a different enzymatic assay (R-Biopharm GmbH, Darmstadt, Germany; cat. no. E0139050). The amount of cholesteryl-esters was calculated by subtracting free from total cholesterol. […]

[5] abbreviates: 7.1 mg/kg/day, subcutaneous pellet, vs placebo.

Take `CCCCCCCC[C@H](SCCCCCC)C(=O)Nc1c(SC)cc(C)nc1SC` [CP-113,818]: the “effect on food consumption and body weight” value in data set [1] (7.1 mg/kg per day) is “absence of any evident effect”. For the same molecule, in data set [1] (setting [5]), the “reduction of cholesteryl-ester levels in the brain” value was determined as 86% and the “reduction of total cholesterol in the serum” value is listed as 29%. Besides, the “decrease of free or membrane cholesterol in the liver” value in data set [1] (0.2-7.1 mg/kg/day, dose-dependent) is listed as “up to 37%”. Besides, the “effect on free cholesterol levels in the brain” value in data set [1] is “no effect”. The tolerated dose in data set [2] is on record as 150 mg/kg per day. Also, the “synaptic density as synaptophysin immunoreactivity” value in data set [3] is recorded as “did not induce significant changes; also recorded: unchanged”. Also, in data set [4], the “decrease of liver cholesterol” value is on record as 34%, the “decrease of liver cholesteryl-esters” value was found to be 87% and the “decrease of serum cholesterol” value is listed as 35%.
